Measurements as given in article PMC10447463, “Data-mining unveils structure–property–activity correlation of viral infectivity enhancing self-assembling peptides” (Nature Communications, 2023).

Experiments:
TZM-bl cells = format: cell-based; settings: CellTiter-Glo, mean of n = 3 replicates; for viability 0.26 µM: peptide 0.26 µM; for viability 1.3 µM: peptide 1.3 µM; for viability 6.5 µM: peptide 6.5 µM
In short: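 CellTiter-Glo luminescence, normalized to 100% metabolic activity, gave cytotoxicity readout for TZM-bl cells exposed to peptide serial dilutions for 3 days; 10,000 cells seeded, triplicate measurements.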

[1] = Aggregate analysis by widefield fluorescence microscopy; format: physicochemical
In short: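 Fibrils aged 1 d RT in PBS; ThT stain (50 µM) at 0.1 mg/mL peptide; 10x air objective; ex 480/40 / em 527/30 nm; brightfield in parallel for ThT-negative aggregates; objects >10 µm^2 quantified, ≥3 images, mean ± SD.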

[2] = Fig S8 panels A, C, 3 fields of 1330 µm x 1330 µm
[3] = Fig S8 panels B, D, average aggregate area, 3 fields of 1330 µm x 1330 µm
[4] = Fig S8 panels B, D, median aggregate area, 3 fields of 1330 µm x 1330 µm
[5] = Fig S8 panels B, D, 3 fields of 1330 µm x 1330 µm
[6] = Fig S8 panels B, D, widefield fluorescence microscopy, 3 fields of 1330 µm x 1330 µm

| Substance | viability 0.26 µM (TZM-bl cells) | viability 1.3 µM (TZM-bl cells) | viability 6.5 µM (TZM-bl cells) | Avg Area in 3 *(1330 µm *1330 µm) ([1]; Fig S8 panels A, C) | Log 10 Number of aggregates in 3 * (1330 µm *1330 µm) ([1]; Fig S8 panels A, C) | Median Area in 3 * (1330 µm *1330 µm) ([1]; Fig S8 panels A, C) | log Avg Area in 3 * ( (1330 µm *1330 µm)) ([1]; Fig S8 panels A, C) | log Median Area in 3 * ( (1330 µm *1330 µm)) ([1]; Fig S8 panels A, C) | log Total Area of all particles in 3 * (1330 µm *1330 µm) ([1]; Fig S8 panels A, C) | Number of aggregates in 3 * (1330 µm *1330 µm) [1, 2] | Avg Area in 3 *(1330 µm *1330 µm) [1, 3] | Median Area in 3 * (1330 µm *1330 µm) [1, 4] | Total Area of all particles in 3 * (1330 µm *1330 µm) [1, 5] | Number of aggregates in 3 * (1330 µm *1330 µm) [1, 6] |
| --- | --- | --- | --- | --- | --- | --- | --- | --- | --- | --- | --- | --- | --- | --- |
| KIKIQIC [TM112 / CN11] | 99.13 | 101.3 | 97.07 | 23.45 | 1.912 | 12.96 | 1.37 | 1.1125 | 3.282 | 81.67 | 23.45 | 12.96 | 1915.068 | 81.67 |
| QCKFKQFFNMWQ [CK10] | 119.6 | 108.9 | 99.32 | – | – | – | – | – | – | – | 30.56 | 15.07 | 55430.97933 | 1814 |
| CKFKFQF [BL4] | 97.07 | 99.36 | 84.09 | 86.55 | 2.108 | 22.111 | 1.937 | 1.345 | 4.0456 | 128.3 | 86.55 | 22.111 | 11106.98933 | 128.3 |
| CHLHLQL [CN9] | 107.2 | 104.6 | 96.74 | 330.1 | 1.5563 | 35.7 | 2.5187 | 1.553 | 4.075 | 36 | 330.1 | 35.7 | 11885.21533 | 36 |
| CKIKIQI [MG3b] | 107.8 | 105.2 | 91.32 | 58.72 | 2.501 | 16.48 | 1.7688 | 1.2169 | 4.27 | 317 | 58.72 | 16.48 | 18614.711 | 317 |
| KFKFQFNMWQ [JG4] | 119.1 | 111.9 | 101.1 | 599.2 | 1.806 | 25.773 | 2.778 | 1.411 | 4.584 | 64 | 599.2 | 25.773 | 38349.21133 | 64 |
| CSISIQI [TM141] | 98.15 | 96.88 | 81.12 | 112.5 | 2.091 | 18.872 | 2.051 | 1.276 | 4.142 | 123.3 | 112.5 | 18.872 | 13871.26567 | 123.3 |
| CKIKQIINMWQ [MG5a / CK17] | 108.4 | 105.1 | 87.21 | 183.3 | 2.289 | 91.75 | 2.263 | 1.963 | 4.553 | 194.7 | 183.3 | 91.75 | 35686.92633 | 194.7 |
| HHHHKIKIKIKIYYYY [TM6] | 112.4 | 103.8 | 86.78 | 71.63 | 2.1683 | 19.72 | 1.855 | 1.295 | 4.023 | 147.3 | 71.63 | 19.72 | 10553.37833 | 147.3 |
| QCKIKIQINMWQ [EF-C opt] | 100.5 | 106.5 | 85.71 | 21.24 | 2.6 | 11.97 | 1.327 | 1.078 | 3.927 | 398 | 21.24 | 11.97 | 8454 | 398 |
| CKFKFQFW [TM72] | 91.88 | 85.39 | 82.4 | 28.12 | 2.713 | 16.689 | 1.449 | 1.222 | 4.162 | 517 | 28.12 | 16.689 | 14537.202 | 517 |
| CQFQFQF [QBL4] | 110.4 | 111.2 | 99.59 | 73.07 | 1.6596 | 15.07 | 1.864 | 1.178 | 3.523 | 45.67 | 73.07 | 15.07 | 3337 | 45.67 |
